Reference: US4418075A, “Epoxysuccinyl amino acid derivatives” (Taisho Pharmaceutical Co., Ltd., priority 1979, dated 1983)

Tests used:
[1] = biological target: T1, CANP prepared from a muscle of hereditary muscular dystrophy chicken (Gallus gallus, UniProt P00789); test: CANP inhibitory activity (method of Ishiura et al.); assay type: biochemical; conditions: 50% inhibition as molar ratio to the enzyme
T1 construct: CANP prepared from a muscle of hereditary muscular dystrophy chicken; from tissue; host or cells: muscle of hereditary muscular dystrophy chicken
T1 sequence (P00789 1-705): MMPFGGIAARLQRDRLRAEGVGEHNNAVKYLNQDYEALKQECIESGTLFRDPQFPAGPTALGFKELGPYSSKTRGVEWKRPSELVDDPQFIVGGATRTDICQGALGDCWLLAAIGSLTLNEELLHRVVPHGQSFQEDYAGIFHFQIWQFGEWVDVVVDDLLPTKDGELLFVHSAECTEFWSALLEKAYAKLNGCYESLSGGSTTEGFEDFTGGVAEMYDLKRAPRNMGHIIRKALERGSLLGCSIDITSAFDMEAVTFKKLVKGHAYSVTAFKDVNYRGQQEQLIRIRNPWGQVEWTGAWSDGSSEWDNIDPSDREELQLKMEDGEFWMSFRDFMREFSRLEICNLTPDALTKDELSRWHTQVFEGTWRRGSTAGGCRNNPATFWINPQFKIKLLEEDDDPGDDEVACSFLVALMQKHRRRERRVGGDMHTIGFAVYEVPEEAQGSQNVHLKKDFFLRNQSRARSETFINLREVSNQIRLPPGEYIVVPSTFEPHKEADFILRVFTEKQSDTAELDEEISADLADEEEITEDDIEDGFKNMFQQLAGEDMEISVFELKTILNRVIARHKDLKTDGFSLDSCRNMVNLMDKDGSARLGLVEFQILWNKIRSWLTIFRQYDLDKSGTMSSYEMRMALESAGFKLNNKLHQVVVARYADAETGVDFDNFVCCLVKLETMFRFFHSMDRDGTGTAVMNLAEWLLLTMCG
Procedure: Their muscular dystrophy inhibitory activity was assayed by the method of Ishiura et al., [J. Biochem., 84, 225 (1978)] using CANP prepared from a muscle of hereditary muscular dystrophy chicken, and the resulting value for 50% inhibition in the molar ratios for the enzyme expressed as ID50 (mole/mole) is shown in Table 1 below.

[2] = Concentration in rat plasma after subcutaneous administration; assay type: in vivo; conditions: sc, rats, 50 mg/kg, an hour after administration
Procedure: The compounds of the present invention are better absorbed by the subcutaneous route in mammals such as rats or rabbits, as compared with the epoxysuccinic acid derivatives of the German Patent Laid Open Application described above and Chemical Abstracts, 87, 68129a (1977). To determine absorption, these compounds were administered subcutaneously to rats at a dose of 50 mg/kg, and the concentration of the test compound in rat plasma at an hour after the administration is shown in following Table 1.

[3] = in vivo
Procedure: The response was evaluated by the blueing spot at 15 minutes after the dye injection.

papain = biological target: T2, papain (Carica papaya, UniProt P00784); test: Papain inhibitory activity (method of K. Hanada et al.); assay type: biochemical; conditions: amount of inhibitor for 50% inhibition; papain 80 μg/ml, Sigma, twice crystallized
T2 construct: purchased Sigma Chem. Co
T2 sequence (P00784 134-345): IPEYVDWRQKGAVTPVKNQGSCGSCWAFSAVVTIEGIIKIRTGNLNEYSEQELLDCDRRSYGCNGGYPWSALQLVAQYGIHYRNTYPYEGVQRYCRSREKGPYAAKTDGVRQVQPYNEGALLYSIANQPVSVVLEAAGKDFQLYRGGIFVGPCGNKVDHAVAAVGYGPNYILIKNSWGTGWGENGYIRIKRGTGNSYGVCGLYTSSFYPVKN
Procedure: Papain inhibitory activity of the compounds of the present invention was assayed by the method of K. Hanada et al [Argic. Biol. Chem., 42, (3)523(1978)] using papain (80 μg/ml, Sigma Chem. Co.) after twice crystallization.

CC(C)C[C@H](NC(=O)C1OC1C(=O)O)C(=O)NCCCCCN (mixture of isomers) [Compound 2, N-[N-(DL-3-trans-carboxyoxirane-2-carbonyl)-L-leucyl]-1,5-diaminopentane]
CANP Inhibitory Activity ID50 (mole/mole) [1]: 54 mole/mole
concentration at 1 h [2]: 20000 ng/mL
Acceleration of vascular permeability, Relative effect (%) to E-64 [3]: 2.3%
Papain inhibitory activity ID50 (papain): 0.105 µg

CC(C)C[C@H](NC(=O)C1OC1C(=O)O)C(=O)NCCCCCCCNC(=O)OCc1ccccc1 (mixture of isomers) [Compound 3, N-[N-(DL-3-trans-carboxyoxirane-2-carbonyl)-L-leucyl]-N'-benzyloxycarbonyl-1,7-diaminoheptane]
CANP Inhibitory Activity ID50 (mole/mole) [1]: 20 mole/mole
concentration at 1 h [2]: 11000 ng/mL
Acceleration of vascular permeability, Relative effect (%) to E-64 [3]: 2.4%
Papain inhibitory activity ID50 (papain): 0.203 µg

CC(C)C[C@H](NC(=O)[C@H]1O[C@@H]1C(=O)O)C(=O)NCCCCCCCN [Compound 1, N-[N-(L-3-trans-carboxyoxirane-2-carbonyl)-L-leucyl]-1,7-diaminoheptane]
CANP Inhibitory Activity ID50 (mole/mole) [1]: 33 mole/mole
concentration at 1 h [2]: 15000 ng/mL
Acceleration of vascular permeability, Relative effect (%) to E-64 [3]: 2.8%
Papain inhibitory activity ID50 (papain): 0.103 µg

CC(C)C[C@H](NC(=O)[C@H]1O[C@@H]1C(=O)O)C(=O)NCCCCN=C(N)N [Compound E-64, N-[N-(L-3-trans-carboxyoxirane-2-carbonyl)-L-leucyl]agmatine, reference compound]
Acceleration of vascular permeability, Relative effect (%) to E-64 [3]: 100.0%

CCOC(=O)C1OC1C(=O)N[C@@H](CC(C)C)C(=O)NCCCCNC(=O)OCc1ccccc1 (stereo partly drawn) [F, N--[N--(DL3-trans-ethoxycarbonyloxirane-2-carbonyl)-L-leucyl] N'--benzyloxycarbonyl1,4-diaminobutane, reference compound]
CANP Inhibitory Activity ID50 (mole/mole) [1]: 480 mole/mole
concentration at 1 h [2]: < 1000 ng/mL
